For experiment [1], the target named is T1, BCAT2 (Homo sapiens, UniProt O15382).
T1 sequence (O15382 28-392): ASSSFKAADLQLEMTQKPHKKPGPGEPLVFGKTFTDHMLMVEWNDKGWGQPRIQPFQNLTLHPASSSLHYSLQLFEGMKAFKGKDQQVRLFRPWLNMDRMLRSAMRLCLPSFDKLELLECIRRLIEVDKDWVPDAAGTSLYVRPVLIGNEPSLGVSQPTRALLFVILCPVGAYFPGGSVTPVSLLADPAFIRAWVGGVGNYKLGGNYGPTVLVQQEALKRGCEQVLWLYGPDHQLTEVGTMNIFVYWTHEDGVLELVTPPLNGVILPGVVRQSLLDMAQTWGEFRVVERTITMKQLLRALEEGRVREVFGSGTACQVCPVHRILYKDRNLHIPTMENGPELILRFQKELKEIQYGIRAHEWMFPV
Put plainly: BCAT2 in vitro enzyme inhibition assay (resazurin/diaphorase-coupled fluorescence). The settings on record: average where tested multiple times. The experiment is classed as biochemical. The procedure, abridged: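 Coupled fluorescence readout: glutamate formed from L-leucine/α-ketoglutarate transamination drives GDH/NAD/diaphorase reduction of resazurin (Ex 540/Em 590). Human BCAT2 was first exposed 1 h at room temperature to compound, top final 100 μM in 3-fold, 10-point series; substrate reaction ran 1 h before SDS quench, in technical duplicate with DMSO max and enzyme-free min controls.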
For orientation: Alamar Blue is a resazurin reagent that responds to reducing activity.

Experiment [2] has as its target T1, BCAT2. Put plainly: BCAT2 in vitro cell inhibition using engineered A549 cells (KMV cell assay, 13C6-KMV by LC-MS/MS). The experiment is classed as cell-based. Set-up: The result was an engineered A549 cell line that expressed endogenous BCAT2; endogenous in cells; host or cells: A549 cells with MUT and BCAT1 knocked out by CRISPR/CAS9; key to BCAT2 Cell Inhibition: A: less than or equal to 0.100 μM; B: greater than 0.100 and less than or equal to 0.500 μM; C: greater than 0.500 and less than or equal to 1.000 μM; d: greater than 1.000 μM; E: no fit. The settings on record: average where tested multiple times.

The results in this text go back to patent US20260159512A1, “BCAT2 INHIBITORS” (AGIOS PHARMACEUTICALS, INC., priority 2021, published 2026).

A word on the pIC50: it is −log10 of the IC50, conventionally taken in molar units.

The structures appear in SMILES notation. pIC50: −log10 of the molar value.

Turning to `CC(C)Cc1nc2cnc(N3CCC[C@H]3C(C)(C)O)cc2n1[C@@H]1CCC[C@H](NC(=O)c2ncc(Cl)s2)C1` [Example 193, 5-chloro-N-((1S,3R)-3-(6-((S)-2-(2-hydroxypropan-2-yl)pyrrolidin-1-yl)-2-isobutyl-1H-imidazo[4,5-c]pyridin-1-yl)cyclohexyl)thiazole-2-carboxamide], the negative-log IC50 (pIC50) in experiment [1] was under 6.00. The “BCAT2 Cell Inhibition” value in experiment [2] was “E”.

In the case of `COC[C@H]1CCCN1c1cc2c(cn1)nc(-c1ccccc1F)n2[C@@H]1CCC[C@H](NC(=O)c2ncc(Cl)s2)C1` [Example 198, 5-chloro-N-((1S,3R)-3-(2-(2-fluorophenyl)-6-((R)-2-(methoxymethyl)pyrrolidin-1-yl)-1H-imidazo[4,5-c]pyridin-1-yl)cyclohexyl)thiazole-2-carboxamide], the pIC50 in experiment [1] and in experiment [2] was under 6.00 throughout.

`CC(C)Cc1nc2cnc(-c3ccccc3CO)cc2n1[C@@H]1CCC[C@H](NC(=O)c2ncc(Cl)s2)C1` [Example 205, 5-chloro-N-((1S,3R)-3-(6-(2-(hydroxymethyl)phenyl)-2-isobutyl-1H-imidazo[4,5-c]pyridin-1-yl)cyclohexyl)thiazole-2-carboxamide] had a negative logarithm of the IC50 (pIC50) in experiment [1] of under 6.00. Besides, the “BCAT2 Cell Inhibition” value in experiment [2] was “E”.

Turning to `CC(C)Cc1nc2cnc(-c3cccc(F)n3)cc2n1[C@H]1CCC[C@@H](NC(=O)c2ncc(Cl)s2)[C@@H]1O` [Example 208, 5-chloro-N-((1R,2S,3S)-3-(6-(6-fluoropyridin-2-yl)-2-isobutyl-1H-imidazo[4,5-c]pyridin-1-yl)-2-hydroxycyclohexyl)thiazole-2-carboxamide], the pIC50 in experiment [1] was under 6.00. Further, in experiment [2], the “BCAT2 Cell Inhibition” value is recorded as “E”.

As to `CC(C)Cc1nc2cnc(-c3ccn(C)n3)cc2n1C1CC(O)CC(NC(=O)c2ncc(Cl)s2)C1` (stereo not shown) [Example 210, 5-chloro-N-(3-hydroxy-5-(2-isobutyl-6-(1-methyl-1H-pyrazol-3-yl)-1H-imidazo[4,5-c]pyridin-1-yl)cyclohexyl)thiazole-2-carboxamide], the figures for the pIC50 in experiment [1] and in experiment [2] were at least 7.00 and 6.00 to 6.30, respectively.

On to `CC(C)Cc1nc2cnc(-c3cc(C(F)(F)F)n[nH]3)cc2n1[C@H]1CCC[C@@H](NC(=O)c2ncc(Cl)s2)[C@@H]1O` [Example 217, 5-chloro-N-((1R,2S,3S)-2-hydroxy-3-(2-isobutyl-6-(3-(trifluoromethyl)-1H-pyrazol-5-yl)-1H-imidazo[4,5-c]pyridin-1-yl)cyclohexyl)thiazole-2-carboxamide], for which, in experiment [1], the pIC50 is under 6.00. Besides, in experiment [2], the “BCAT2 Cell Inhibition” value was “E”.

For the compound `CC(C)Cc1nc2cnc(-c3ccn(C(F)F)n3)cc2n1[C@H]1CCC[C@@H](NC(=O)c2ncc(Cl)s2)[C@@H]1O` [Example 229, 5-chloro-N-((1R,2S,3S)-3-(6-(1-(difluoromethyl)-1H-pyrazol-3-yl)-2-isobutyl-1H-imidazo[4,5-c]pyridin-1-yl)-2-hydroxycyclohexyl)thiazole-2-carboxamide], the negative logarithm of the IC50 (pIC50) in experiment [1] is 6.00 to 6.30. In addition, the “BCAT2 Cell Inhibition” value in experiment [2] was “E”.

Compound `CC(C)Cc1nc2cnc(-n3cc(F)cn3)cc2n1[C@H]1CCC[C@@H](NC(=O)c2ncc(Cl)s2)[C@@H]1O` [Example 231, 5-chloro-N-((1R,2S,3S)-3-(6-(4-fluoro-1H-pyrazol-1-yl)-2-isobutyl-1H-imidazo[4,5-c]pyridin-1-yl)-2-hydroxycyclohexyl)thiazole-2-carboxamide] gave a pIC50 in experiment [1] of under 6.00. Besides, the “BCAT2 Cell Inhibition” value in experiment [2] is listed as “E”.

On to `CC(C)Cc1nc2cnc(-c3ccccn3)cc2n1[C@H]1CCC[C@@H](NC(=O)c2ncc(Cl)s2)[C@@H]1O` [Example 236, 5-chloro-N-((1R,2S,3S)-2-hydroxy-3-(2-isobutyl-6-(pyridin-2-yl)-1H-imidazo[4,5-c]pyridin-1-yl)cyclohexyl)thiazole-2-carboxamide], for which the pIC50 in experiment [1] is 6.00 to 6.30. For the same compound, the “BCAT2 Cell Inhibition” value in experiment [2] is listed as “E”.

For `Cc1coc(-c2cc3c(cn2)nc(-c2ccccc2F)n3[C@H]2CCC[C@@H](NC(=O)c3ncc(Cl)s3)[C@@H]2O)n1` [Example 237, 5-chloro-N-((1R,2S,3S)-3-(2-(2-fluorophenyl)-6-(4-methyloxazol-2-yl)-1H-imidazo[4,5-c]pyridin-1-yl)-2-hydroxycyclohexyl)thiazole-2-carboxamide], the pIC50 in experiment [1] was 6.30 to 7.00; in experiment [2], 6.00 to 6.30.

Turning to `O=C(N[C@@H]1CCC[C@H](n2c(-c3ccccc3F)nc3cnc(-c4ccn[nH]4)cc32)[C@H]1O)c1ncc(Cl)s1` [Example 239, 5-chloro-N-((1R,2S,3S)-3-(2-(2-fluorophenyl)-6-(1H-pyrazol-5-yl)-1H-imidazo[4,5-c]pyridin-1-yl)-2-hydroxycyclohexyl)thiazole-2-carboxamide], the pIC50 in experiment [1] is 6.30 to 7.00; in experiment [2], 6.00 to 6.30.

On to `O=C(N[C@@H]1CCC[C@H](n2c(-c3ccccc3F)nc3cnc(-c4ccccn4)cc32)[C@H]1O)c1ncc(Cl)s1` [Example 241, 5-chloro-N-((1R,2S,3S)-3-(2-(2-fluorophenyl)-6-(pyridin-2-yl)-1H-imidazo[4,5-c]pyridin-1-yl)-2-hydroxycyclohexyl)thiazole-2-carboxamide], for which the negative-log IC50 (pIC50) in experiment [1] and in experiment [2] was 6.30 to 7.00 each time.

In experiment [1], `Cc1cnn(-c2cc3c(cn2)nc(CC(C)C)n3[C@H]2CCC[C@@H](NC(=O)c3ncc(Cl)s3)[C@@H]2O)n1` [Example 244, 5-chloro-N-((1R,2S,3S)-2-hydroxy-3-(2-isobutyl-6-(4-methyl-2H-1,2,3-triazol-2-yl)-1H-imidazo[4,5-c]pyridin-1-yl)cyclohexyl)thiazole-2-carboxamide] had a pIC50 of under 6.00. In experiment [2], the “BCAT2 Cell Inhibition” value is “E”.

Consider `Cc1cnn(-c2cc3c(cn2)nc(-c2ccccc2F)n3[C@H]2CCC[C@@H](NC(=O)c3ncc(Cl)s3)[C@@H]2O)n1` [Example 247, 5-chloro-N-((1R,2S,3S)-3-(2-(2-fluorophenyl)-6-(4-methyl-2H-1,2,3-triazol-2-yl)-1H-imidazo[4,5-c]pyridin-1-yl)-2-hydroxycyclohexyl)thiazole-2-carboxamide], for which the pIC50 in experiment [1] and in experiment [2] was 6.00 to 6.30 in each case.

As to `O=C(N[C@@H]1CCC[C@H](n2c(-c3ccccc3F)nc3cnc(-c4ncco4)cc32)[C@H]1O)c1ncc(Cl)s1` [Example 249, 5-chloro-N-((1R,2S,3S)-3-(2-(2-fluorophenyl)-6-(oxazol-2-yl)-1H-imidazo[4,5-c]pyridin-1-yl)-2-hydroxycyclohexyl)thiazole-2-carboxamide], the results for the negative-log IC50 (pIC50) in experiment [1] and in experiment [2] were 6.30 to 7.00 and 6.00 to 6.30, respectively.

`CC(C)Cc1nc2cnc(-c3nc[nH]n3)cc2n1[C@H]1CCC[C@@H](NC(=O)c2ncc(Cl)s2)[C@@H]1O` [Example 251, 5-chloro-N-((1R,2S,3S)-2-hydroxy-3-(2-isobutyl-6-(1H-1,2,4-triazol-3-yl)-1H-imidazo[4,5-c]pyridin-1-yl)cyclohexyl)thiazole-2-carboxamide]: the negative-log IC50 (pIC50) is 6.30 to 7.00 in experiment [1] and under 6.00 in experiment [2].

Take `O=C(N[C@@H]1C[C@@H](O)C[C@H](n2c(-c3ccccc3F)nc3cnc(-c4ccccn4)cc32)C1)c1ncc(Cl)s1` [Example 253, 5-chloro-N-((1S,3R,5R)-3-(2-(2-fluorophenyl)-6-(pyridin-2-yl)-1H-imidazo[4,5-c]pyridin-1-yl)-5-hydroxycyclohexyl)thiazole-2-carboxamide]: the pIC50 in experiment [1] and in experiment [2] was 6.30 to 7.00 in each case.

Regarding `O=C(N[C@@H]1C[C@@H](O)C[C@H](n2c(-c3ccccc3F)nc3cnc(-c4nc[nH]n4)cc32)C1)c1ccc(Cl)s1` [Example 255, 5-chloro-N-((1S,3R,5R)-3-(2-(2-fluorophenyl)-6-(1H-1,2,4-triazol-3-yl)-1H-imidazo[4,5-c]pyridin-1-yl)-5-hydroxycyclohexyl)thiophene-2-carboxamide], the negative-log IC50 (pIC50) in experiment [1] is at least 7.00; in experiment [2] it was 6.30 to 7.00.

As to `CC(C)Cc1nc2cnc(-c3nc[nH]n3)cc2n1[C@H]1C[C@H](O)C[C@@H](NC(=O)c2ncc(Cl)s2)C1` [Example 257, 5-chloro-N-((1S,3R,5R)-3-hydroxy-5-(2-isobutyl-6-(1H-1,2,4-triazol-3-yl)-1H-imidazo[4,5-c]pyridin-1-yl)cyclohexyl)thiazole-2-carboxamide], the pIC50 in experiment [1] is 6.00 to 6.30. For the same compound, the “BCAT2 Cell Inhibition” value in experiment [2] is given as “E”.

Turning to `O=C(N[C@@H]1C[C@@H](O)C[C@H](n2c(-c3ccccc3F)nc3cnc(-c4ncco4)cc32)C1)c1ncc(Cl)s1` [Example 261, 5-chloro-N-((1S,3R,5R)-3-(2-(2-fluorophenyl)-6-(oxazol-2-yl)-1H-imidazo[4,5-c]pyridin-1-yl)-5-hydroxycyclohexyl)thiazole-2-carboxamide], the negative logarithm of the IC50 (pIC50) in experiment [1] is 6.30 to 7.00; in experiment [2], under 6.00.
